Results published in PMC5862592, “CDK8/19 inhibition induces premature G1/S transition and ATR-dependent cell death in prostate cancer cells” (Oncotarget, 2018).
Where two headings read alike, the source gives them in different places.

Legend:
Experiment in all cases: biochemical
Set-up in all cases: KINOMEscan active site-directed competition binding assay (DiscoveRx), 456 kinases, per cent of control at 300 nM
Conditions in all cases: read-out: Percent of Control (%)
[1] = molecular target: T1, ABL1(H396P)-phosphorylated (Homo sapiens, UniProt P00519, H396P)
T1 construct: phosphorylated
Description: (§1) Kinase selectivity of T-474 and T-418 was evaluated at 300 nmol/L using a panel of 456 kinases at DiscoveRx (KINOMEscan). The platform employs an active site-directed competition binding assay to quantitatively measure interactions between test compounds and kinases. […] In VCaP prostate cancer cells, treatment with T-474 or T-418 suppressed the phosphorylation of the known CDK8 substrate STAT1 at Ser727 both in the absence and in the presence of IFN-γ (Figure 1B), which stimulates CDK8-mediated STAT1 phosphorylation.

[2] = molecular target: T2, ABL1(F317I)-nonphosphorylated (Homo sapiens, UniProt P00519, F317I)
T2 construct: nonphosphorylated
Description: as §1

CHEK2 = CHEK2 (Homo sapiens, UniProt O96017)
Sequence of CHEK2 (O96017 whole entry): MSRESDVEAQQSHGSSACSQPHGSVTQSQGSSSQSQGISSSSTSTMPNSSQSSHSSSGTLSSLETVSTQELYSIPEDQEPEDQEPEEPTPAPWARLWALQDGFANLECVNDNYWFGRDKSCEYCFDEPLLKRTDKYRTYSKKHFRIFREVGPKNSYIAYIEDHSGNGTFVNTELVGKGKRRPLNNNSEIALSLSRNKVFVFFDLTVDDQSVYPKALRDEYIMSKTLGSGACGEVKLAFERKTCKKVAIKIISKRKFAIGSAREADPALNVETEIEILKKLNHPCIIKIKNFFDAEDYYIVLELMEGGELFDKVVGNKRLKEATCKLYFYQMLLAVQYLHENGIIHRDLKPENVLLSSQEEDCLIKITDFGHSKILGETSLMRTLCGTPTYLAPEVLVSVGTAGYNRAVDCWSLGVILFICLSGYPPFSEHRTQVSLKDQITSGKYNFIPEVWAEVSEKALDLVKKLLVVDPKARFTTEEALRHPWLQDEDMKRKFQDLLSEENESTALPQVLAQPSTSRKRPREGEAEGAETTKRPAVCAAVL
Description: as §1

ACVRL1 = ACVRL1 (Homo sapiens, UniProt P37023)
Description: as §1

NEK11 = NEK11 (Homo sapiens, UniProt Q8NG66)
Description: as §1

CLK1 = CLK1 (Homo sapiens, UniProt P49759)
Sequence of CLK1 (P49759 whole entry): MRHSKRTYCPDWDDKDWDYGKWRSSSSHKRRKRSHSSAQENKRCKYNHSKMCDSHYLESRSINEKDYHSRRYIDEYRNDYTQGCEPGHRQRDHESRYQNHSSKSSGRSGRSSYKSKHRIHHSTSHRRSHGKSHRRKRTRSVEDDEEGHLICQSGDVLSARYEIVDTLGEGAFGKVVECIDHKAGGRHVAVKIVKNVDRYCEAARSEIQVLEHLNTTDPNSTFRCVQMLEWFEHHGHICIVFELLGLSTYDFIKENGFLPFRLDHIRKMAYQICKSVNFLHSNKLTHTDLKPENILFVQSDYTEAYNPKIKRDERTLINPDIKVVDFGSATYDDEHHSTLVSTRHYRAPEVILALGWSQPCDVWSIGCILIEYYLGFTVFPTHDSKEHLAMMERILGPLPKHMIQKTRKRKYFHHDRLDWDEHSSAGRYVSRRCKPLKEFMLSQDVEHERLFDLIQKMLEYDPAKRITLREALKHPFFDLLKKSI
Description: as §1

EGFR(T790M) = EGFR(T790M) (Homo sapiens, UniProt P00533, T790M)
Description: as §1

DMPK = DMPK (Homo sapiens, UniProt Q09013)
Description: as §1

PLK3 = PLK3 (Homo sapiens, UniProt Q9H4B4)
Description: as §1

JNK1 = molecular target: T3, JNK1 (Homo sapiens, UniProt P45983)
T3 construct: gene MAPK8
Description: as §1

PIK3CG = PIK3CG (Homo sapiens, UniProt P48736)
Description: as §1

ICK = molecular target: T4, ICK (Homo sapiens, UniProt Q9UPZ9)
T4 construct: gene CILK1
Description: as §1

SLK = SLK (Homo sapiens, UniProt Q9H2G2)
Sequence of SLK (Q9H2G2 whole entry): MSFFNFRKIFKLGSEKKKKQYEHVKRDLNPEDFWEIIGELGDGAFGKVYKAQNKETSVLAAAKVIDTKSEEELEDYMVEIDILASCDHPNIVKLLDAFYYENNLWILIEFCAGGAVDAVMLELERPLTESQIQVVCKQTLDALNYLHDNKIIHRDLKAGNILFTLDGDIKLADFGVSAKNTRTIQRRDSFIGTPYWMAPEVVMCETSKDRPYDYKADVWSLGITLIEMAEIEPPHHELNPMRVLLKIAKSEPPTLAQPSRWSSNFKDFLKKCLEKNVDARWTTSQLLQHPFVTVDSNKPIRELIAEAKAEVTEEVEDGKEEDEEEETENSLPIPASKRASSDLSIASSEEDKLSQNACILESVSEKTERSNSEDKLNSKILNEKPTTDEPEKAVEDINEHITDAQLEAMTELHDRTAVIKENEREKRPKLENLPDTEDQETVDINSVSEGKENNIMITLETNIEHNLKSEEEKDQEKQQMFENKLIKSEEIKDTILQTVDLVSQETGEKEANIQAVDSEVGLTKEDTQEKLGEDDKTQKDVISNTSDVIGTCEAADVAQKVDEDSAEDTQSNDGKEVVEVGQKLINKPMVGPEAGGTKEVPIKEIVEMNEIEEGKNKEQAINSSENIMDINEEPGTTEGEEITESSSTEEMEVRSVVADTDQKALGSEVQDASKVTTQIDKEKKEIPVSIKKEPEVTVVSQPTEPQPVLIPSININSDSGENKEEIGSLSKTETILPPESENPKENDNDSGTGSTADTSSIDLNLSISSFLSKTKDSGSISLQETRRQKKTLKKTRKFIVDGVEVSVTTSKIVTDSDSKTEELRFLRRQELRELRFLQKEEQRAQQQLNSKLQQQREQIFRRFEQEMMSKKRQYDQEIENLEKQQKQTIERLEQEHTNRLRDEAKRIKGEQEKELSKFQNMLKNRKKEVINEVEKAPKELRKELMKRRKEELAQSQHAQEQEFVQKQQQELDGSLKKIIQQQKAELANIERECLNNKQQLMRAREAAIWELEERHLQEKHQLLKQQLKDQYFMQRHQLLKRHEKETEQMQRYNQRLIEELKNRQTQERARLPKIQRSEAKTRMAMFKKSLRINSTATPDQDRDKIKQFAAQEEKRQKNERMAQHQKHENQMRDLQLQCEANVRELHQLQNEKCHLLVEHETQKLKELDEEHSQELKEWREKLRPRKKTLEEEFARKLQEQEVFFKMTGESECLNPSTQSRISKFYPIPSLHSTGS
Description: as §1

RIOK3 = RIOK3 (Homo sapiens, UniProt O14730)
Description: as §1

AURKB = AURKB (Homo sapiens, UniProt Q96GD4)
Description: as §1

TYRO3 = TYRO3 (Homo sapiens, UniProt Q06418)
Description: as §1

ERK1 = molecular target: T5, ERK1 (Homo sapiens, UniProt P27361)
T5 construct: gene MAPK3
Description: as §1

PRKD1 = PRKD1 (Homo sapiens, UniProt Q15139)
Sequence of PRKD1 (Q15139 whole entry): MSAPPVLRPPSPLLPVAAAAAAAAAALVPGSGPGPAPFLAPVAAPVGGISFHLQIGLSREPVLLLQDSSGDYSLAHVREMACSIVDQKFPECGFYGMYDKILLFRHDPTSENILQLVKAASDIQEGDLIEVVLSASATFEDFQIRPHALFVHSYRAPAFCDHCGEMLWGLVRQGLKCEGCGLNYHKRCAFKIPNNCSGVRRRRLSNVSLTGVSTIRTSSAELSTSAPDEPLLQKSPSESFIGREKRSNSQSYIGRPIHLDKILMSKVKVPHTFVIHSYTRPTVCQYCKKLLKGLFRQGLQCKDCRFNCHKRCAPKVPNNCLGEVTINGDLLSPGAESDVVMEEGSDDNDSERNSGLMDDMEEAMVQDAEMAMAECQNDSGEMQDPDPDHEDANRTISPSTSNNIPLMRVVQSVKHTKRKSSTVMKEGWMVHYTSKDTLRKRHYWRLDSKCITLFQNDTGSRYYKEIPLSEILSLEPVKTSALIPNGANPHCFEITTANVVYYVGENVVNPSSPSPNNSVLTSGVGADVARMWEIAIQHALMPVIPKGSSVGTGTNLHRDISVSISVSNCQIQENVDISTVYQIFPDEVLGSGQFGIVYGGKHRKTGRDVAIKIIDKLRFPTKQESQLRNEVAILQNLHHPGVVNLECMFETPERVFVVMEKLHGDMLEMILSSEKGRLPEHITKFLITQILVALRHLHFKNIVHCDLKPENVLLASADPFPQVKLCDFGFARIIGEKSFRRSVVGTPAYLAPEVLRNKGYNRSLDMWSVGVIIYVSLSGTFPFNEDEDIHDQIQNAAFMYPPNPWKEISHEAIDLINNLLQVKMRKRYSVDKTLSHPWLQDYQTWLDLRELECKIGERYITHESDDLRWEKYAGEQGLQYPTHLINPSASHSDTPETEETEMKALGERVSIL
Description: as §1

TRPM6 = TRPM6 (Homo sapiens, UniProt Q9BX84)
Description: as §1

CSF1R-autoinhibited = CSF1R-autoinhibited (Homo sapiens, UniProt P07333)
Sequence of CSF1R-autoinhibited (P07333 whole entry): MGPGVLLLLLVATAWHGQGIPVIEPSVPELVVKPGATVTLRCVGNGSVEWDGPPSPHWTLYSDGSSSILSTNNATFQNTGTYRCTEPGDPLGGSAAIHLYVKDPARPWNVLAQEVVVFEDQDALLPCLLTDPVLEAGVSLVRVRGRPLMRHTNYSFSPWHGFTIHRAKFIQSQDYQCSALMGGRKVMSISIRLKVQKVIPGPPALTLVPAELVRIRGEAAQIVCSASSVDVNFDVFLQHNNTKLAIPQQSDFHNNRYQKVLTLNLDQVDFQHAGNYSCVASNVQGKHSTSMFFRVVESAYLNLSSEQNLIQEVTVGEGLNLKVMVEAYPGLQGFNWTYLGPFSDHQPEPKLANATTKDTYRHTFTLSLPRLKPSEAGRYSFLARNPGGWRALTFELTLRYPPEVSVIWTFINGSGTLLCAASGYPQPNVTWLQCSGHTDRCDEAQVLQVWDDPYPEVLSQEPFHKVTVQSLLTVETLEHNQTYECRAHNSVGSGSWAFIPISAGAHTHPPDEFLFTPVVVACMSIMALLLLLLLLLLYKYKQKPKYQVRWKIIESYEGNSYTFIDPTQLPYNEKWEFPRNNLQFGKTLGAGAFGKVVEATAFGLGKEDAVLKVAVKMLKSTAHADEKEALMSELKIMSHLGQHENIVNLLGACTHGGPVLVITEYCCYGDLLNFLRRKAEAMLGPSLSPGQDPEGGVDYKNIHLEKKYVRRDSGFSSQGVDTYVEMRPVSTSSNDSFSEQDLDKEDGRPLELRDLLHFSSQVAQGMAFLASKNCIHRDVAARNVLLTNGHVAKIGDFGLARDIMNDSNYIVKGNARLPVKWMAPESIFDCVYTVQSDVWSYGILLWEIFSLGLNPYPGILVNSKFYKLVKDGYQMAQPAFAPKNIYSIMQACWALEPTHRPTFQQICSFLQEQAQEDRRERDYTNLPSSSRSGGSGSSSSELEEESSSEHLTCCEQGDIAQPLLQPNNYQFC
Description: as §1

MARK2 = MARK2 (Homo sapiens, UniProt Q7KZI7)
Sequence of MARK2 (Q7KZI7 whole entry): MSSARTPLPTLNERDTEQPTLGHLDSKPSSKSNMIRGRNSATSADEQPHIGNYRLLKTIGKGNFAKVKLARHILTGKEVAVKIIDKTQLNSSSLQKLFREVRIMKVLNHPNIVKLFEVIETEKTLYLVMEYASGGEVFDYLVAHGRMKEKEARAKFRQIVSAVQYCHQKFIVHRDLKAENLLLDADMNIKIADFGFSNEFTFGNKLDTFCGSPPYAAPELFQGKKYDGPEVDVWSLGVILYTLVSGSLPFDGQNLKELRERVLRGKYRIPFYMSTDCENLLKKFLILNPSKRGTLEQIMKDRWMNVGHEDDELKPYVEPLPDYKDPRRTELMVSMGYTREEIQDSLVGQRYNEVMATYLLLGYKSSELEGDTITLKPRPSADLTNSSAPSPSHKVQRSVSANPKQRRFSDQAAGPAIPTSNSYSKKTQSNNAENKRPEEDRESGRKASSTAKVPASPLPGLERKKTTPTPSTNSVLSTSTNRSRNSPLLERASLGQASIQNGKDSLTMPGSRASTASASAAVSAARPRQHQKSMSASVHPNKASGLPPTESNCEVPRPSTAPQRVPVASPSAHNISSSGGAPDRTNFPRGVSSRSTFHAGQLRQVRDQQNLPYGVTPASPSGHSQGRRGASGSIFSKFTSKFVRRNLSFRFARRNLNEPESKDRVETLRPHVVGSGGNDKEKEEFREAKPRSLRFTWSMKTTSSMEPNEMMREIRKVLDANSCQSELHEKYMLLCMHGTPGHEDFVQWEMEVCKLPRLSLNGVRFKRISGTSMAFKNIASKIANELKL
Description: as §1

PIP5K2C = molecular target: T6, PIP5K2C (Homo sapiens, UniProt Q8TBX8)
T6 construct: gene PIP4K2C
Description: as §1

Cc1ncccc1Oc1sc(C(N)=O)c2c1-c1c(cnn1C)CC2 [T-474, 1-methyl-8-((2-methylpyridin-3-yl)oxy)-4,5-dihydro-1H-thieno[3,4-g]indazole-6-carboxamide]
remaining binding at 0.3 µM [1]: 100%
remaining binding at 0.3 µM [2]: 100%
remaining binding at 0.3 µM (CHEK2): 100%
remaining binding at 0.3 µM (ACVRL1): 87%
remaining binding at 0.3 µM (NEK11): 100%
remaining binding at 0.3 µM (CLK1): 32%
remaining binding at 0.3 µM (EGFR(T790M)): 100%
remaining binding at 0.3 µM (DMPK): 98%
remaining binding at 0.3 µM (PLK3): 88%
remaining binding at 0.3 µM (JNK1): 87%
remaining binding at 0.3 µM (PIK3CG): 88%
remaining binding at 0.3 µM (ICK): 100%
remaining binding at 0.3 µM (SLK): 100%
remaining binding at 0.3 µM (RIOK3): 74%
remaining binding at 0.3 µM (AURKB): 100%
remaining binding at 0.3 µM (TYRO3): 95%
remaining binding at 0.3 µM (ERK1): 100%
remaining binding at 0.3 µM (PRKD1): 96%
remaining binding at 0.3 µM (TRPM6): 95%
remaining binding at 0.3 µM (CSF1R-autoinhibited): 100%
remaining binding at 0.3 µM (MARK2): 100%
remaining binding at 0.3 µM (PIP5K2C): 74%

O=C(/C=C/c1cnccc1-c1ccc(F)cc1)Nc1ccc(CCc2nnco2)cc1 [T-418, (2E)-3-(4-(4-fluorophenyl)pyridin-3-yl)-N-(4-(2-(1,3,4-oxadiazol-2-yl)ethyl)phenyl)acrylamide]
remaining binding at 0.3 µM ([1]; sheet T-418): 96%
remaining binding at 0.3 µM ([2]; sheet T-418): 100%
remaining binding at 0.3 µM (CHEK2; sheet T-418): 89%
remaining binding at 0.3 µM (ACVRL1; sheet T-418): 77%
remaining binding at 0.3 µM (NEK11; sheet T-418): 100%
remaining binding at 0.3 µM (CLK1; sheet T-418): 100%
remaining binding at 0.3 µM (EGFR(T790M); sheet T-418): 95%
remaining binding at 0.3 µM (DMPK; sheet T-418): 91%
remaining binding at 0.3 µM (PLK3; sheet T-418): 82%
remaining binding at 0.3 µM (JNK1; sheet T-418): 90%
remaining binding at 0.3 µM (PIK3CG; sheet T-418): 100%
remaining binding at 0.3 µM (ICK; sheet T-418): 100%
remaining binding at 0.3 µM (SLK; sheet T-418): 100%
remaining binding at 0.3 µM (RIOK3; sheet T-418): 78%
remaining binding at 0.3 µM (AURKB; sheet T-418): 100%
remaining binding at 0.3 µM (TYRO3; sheet T-418): 82%
remaining binding at 0.3 µM (ERK1; sheet T-418): 94%
remaining binding at 0.3 µM (PRKD1; sheet T-418): 96%
remaining binding at 0.3 µM (TRPM6; sheet T-418): 90%
remaining binding at 0.3 µM (CSF1R-autoinhibited; sheet T-418): 86%
remaining binding at 0.3 µM (MARK2; sheet T-418): 100%
remaining binding at 0.3 µM (PIP5K2C; sheet T-418): 74%
